Reference: US6479079B1, “Anticalcification treatments for fixed biomaterials” (Sulzer Carbomedics Inc., priority 1999, dated 2002)

What was measured:
[1] = test system: glutaraldehyde fixed bovine pericardium; assay: Calcification after subcutaneous implantation in rats (Example 1); assay type: in vivo, Sprague-Dawley rats; settings: alcohol treatment 24 hrs, retrieved after 60 days
Procedure: Bovine pericardium was obtained fresh from the abattoir, trimmed to remove excess fat, and stored in a high osmolarity solution until use. Prior to fixation, the tissue was rinsed thoroughly in phosphate buffered saline (PBS) having a pH of 7.3-7.4. A 0.25% solution of glutaraldehyde was prepared by adding 2.5 ml of a 50% glutaraldehyde solution (Aldrich Chemical) to 500 ml using PBS. Fifteen 1 cm×1 cm samples of bovine pericardium tissue were added to the glutaraldehyde solution and the tube was stored at room temperature for 7 days.
In a sterile hood, glutaraldehyde fixed bovine pericardium pieces were washed with sterile PBS (3 washes, 10 minutes each). The samples were then immersed in a sterile filtered solution of 40% ethanol, 5% octanol, 55% water and treated for 24 hours at room temperature. The tissue was then washed with sterile PBS (3 washes, 10 minutes each), and in sterile filtered 45% ethanol in PBS for about 30 minutes. […]
The calcium content of the retrieved samples was determined by hydrolyzing the samples under acidic conditions and analyzing the digested samples using standard inductively coupled plasma (ICP) emission spectrophotometry. […] The resulting digested sample was diluted with water and analyzed using an ICP spectrophotometer (Varian Inc.; Liberty 100/200 ICP-OCS).

[2] = test system: glutaraldehyde-fixed bovine pericardium tissue; assay: Calcium and phosphorus content after subcutaneous implantation in rats (Examples 2 and 3); assay type: in vivo, Sprague-Dawley rats; settings: for Calcuim / Phosphorus: Bovine Pericardium, 60 days of implantation
Procedure: (§1) In a sterile hood, pieces of glutaraldehyde-fixed bovine pericardium tissue (Mitroflow Inc.; Richmond, British Columbia, Canada) porcine cusp tissue (Labcor; Belo Horizonte, Brazil) and porcine wall tissue (Labcor Inc.) were transferred into sterile tubes containing 1,2-octanediol solutions (5% […] (Aldrich Chemical), 40% ethanol and 55% 10 mM HEPES buffer). The tubes were transferred to a 37° C. incubator and maintained at 37° C. with gentle agitation for about 16 hours. After the treatment, the samples were transferred to solutions comprising 22% ethanol in 10 mM HEPES and stored for 14 days at 4° C. The final tissue to volume ratio for all treatments was approximately 27 ml/g.
(§2) For N-methyl pyrolidinone (NMP) treatments, pieces of glutaraldehyde-fixed bovine pericardium tissue (Mitroflow Inc.), porcine cusp tissue (Labcor Inc.) and porcine wall tissue (Labcor Inc.) were transferred into sterile tubes containing NMP. The tubes were incubated at room temperature for about 16 hours with occasional manual agitation. After the treatment, the tissue samples were transferred to 22% HEPES-buffered ethanol solutions and stored for 14 days at 4° C.
(§3) Samples treated with the 1,2-octanediol solutions and with NMP, as well as untreated samples of each tissue type, were provided to Charles Rivers Laboratories (Wilmington, Mass.) for implantation into rats. Seven rats per treatment group were analyzed. Prior to implantation, the tissue samples were rinsed for 3 minutes×3 in sterile PBS, accompanied by gentle agitation. The samples were implanted subcutaneously approximately 1 cm from the abdominal midline in 3 week old Sprague-Dawley rats and retrieved after 60 days of implantation. Unimplanted samples (one per tissue type per treatment) were used as unimplanted controls. After retrieval, the samples were analyzed for their calcium and phosphorus contents using a standard ICP methodology.
In a sterile hood, pieces of glutaraldehyde-fixed bovine pericardium tissue (Mitroflow Inc.) were transferred into sterile tubes containing a 45% solution of HEPES-buffered ethanol (45% ethanol, 55% 10 mM HEPES buffer). The tubes were transferred to a 37° C. incubator and maintained at 37° C. with gentle agitation for about 16 hours. After the treatment, the samples were transferred to fresh solution of 45% HEPES-buffered ethanol and stored for 14 days at room temperature (˜25° C.). The final tissue to volume ratio for all treatments was approximately 27 ml /g.
as §3, with “45% ethanol solution,” for “1,2-octanediol solutions and with NMP,”, “by ICP.” for “using a standard ICP methodology.”

[3] = Shrinkage temperature by differential scanning calorimetric analysis; assay type: physicochemical, bovine
Procedure: The samples were then analyzed to evaluate the presence of extractable proteins and to determine shrinkage temperatures.
The shrinkage temperatures of the treated tissues were also determined using standard differential scanning calorimetric analysis. Typically, 2-10 mg of tissue was heated at the rate of 10° C. per minute under nitrogen atmosphere. The onset of the endotherm observed at about 60-90° C. is conventionally attributed to a shrinkage transition, and was used as the shrinkage temperature. An increase in the shrinkage temperature is an indication that cross-linking has occurred.
For these experiments, bovine pericardium samples were placed in 0.25% solutions of glutaraldehyde in PBS where they remained at room temperature for about 7 days. The cross-linked tissues were then subjected to either 1,2-octanediol or NMP treatments, as described above. The treated samples were then analyzed for extractable proteins and to determine shrinkage temperatures.

porcine cusp tissue = assay: Calcium and phosphorus content after subcutaneous implantation in rats (Example 2); assay type: in vivo, Sprague-Dawley rats; settings: 60 days of implantation
Procedure: as §1, §2, §3

porcine wall tissue = assay: as above; assay type: in vivo, Sprague-Dawley rats; settings: 60 days of implantation
Procedure: as §1, §2, §3

[4] = treated at 37° C. about 16 hours (Example 3)

| SMILES | Calcium ([1]; glutaraldehyde 0.25%, 14 days (45% EtOH) or 7 days (octanol), ICP) | Average von Kossa Grading ([1]; graded from 0 (none) to 5 (severe)) | Calcuim [2, 4] | Phosphorus [2, 4] | calcium and phosphorus levels compared with no anticalcification treatment ([2]; Example 3) | effect on shrinkage temperature compared with untreated tissue [3] | Shrink Temperature ([3]; glutaraldehyde 0.25% about 7 days, then post-fixation treatment) | Calcuim [2] | Phosphorus [2] | calcium and phosphorus levels of explanted tissues ([2]; all tissue types, most pronounced with bovine pericardium) | Calcuim (porcine cusp tissue) | Phosphorus (porcine cusp tissue) | Calcuim (porcine wall tissue) | Phosphorus (porcine wall tissue) |
| --- | --- | --- | --- | --- | --- | --- | --- | --- | --- | --- | --- | --- | --- | --- |
| CCO [45% EtOH, ethanol] | 168 μg/mg dry tissue | 5 | 3.4 μg/mg tissue | 0.0 μg/mg tissue | significant reduction | – | – | – | – | – | – | – | – | – |
| CN1CCCC1=O [NMP, N-methyl pyrolidinone] | – | – | – | – | – | no significant effect | 85.6 °C | 8.0 μg/mg tissue | 3.4 μg/mg tissue | significantly reduced | 14.7 μg/mg tissue | 7.9 μg/mg tissue | 111.9 μg/mg tissue | 55.2 μg/mg tissue |
| CCCCCCC(O)CO (centres unmarked) [1,2-octanediol] | – | – | – | – | – | – | – | 3.4 μg/mg tissue | 0 μg/mg tissue | – | 44.1 μg/mg tissue | 21.9 μg/mg tissue | 106.4 μg/mg tissue | 53.0 μg/mg tissue |
